Experimental data from paper PMC11337105, “Identification of 2-(N-aryl-1,2,3-triazol-4-yl) quinoline derivatives as antitubercular agents endowed with InhA inhibitory activity” (Frontiers in Chemistry, 2024).
≈ marks a conversion by molar mass, not a printed value.

Tests used:
M. bovis BCG = experiment: microbe, parasite or virus in culture; type: cell-based; details: Mycobacterium tuberculosis variant bovis BCG, read-out: MIC M. bovis BCG
M. tuberculosis H37Rv = experiment: Antimycobacterial MIC / primary screening, MABA (microplate alamar blue assay); type: cell-based; details: Mycobacterium tuberculosis
M. abscessus = experiment: Antimycobacterial MIC / primary screening, MABA; type: cell-based; details: Mycobacteroides abscessus, read-out: MIC M. abscessus
L929 cells = experiment: Cytotoxicity, MTT protocol (ISO 10993-5:2009(E)); type: cell-based; details: ratio to MIC against M. tuberculosis
Experimental: This evaluation adhered precisely to international standards (ISO 10993-5:2009(E)), employing L929 cells and the MTT protocol ([Bekier et al., 2021]). The determination of the half maximal inhibitory concentration (IC50) values was carried out for 12 out of the 13 compounds tested, considering the occurrence of derivative precipitation in the growth medium for L929 cells (Table 1). […] For two compounds (5g and 5i), the discriminatory index (IC50/MIC) was identified at the level of 20.

Compound: Cc1c(-c2cc(C(=O)O)c3cc(Cl)ccc3n2)nnn1-c1cccc(Br)c1 [Compound 5L, 2-(1-(3-Bromophenyl)-5-methyl-1H-1,2,3-triazol-4-yl)-6-chlorobenzo [b]pyridine-4-carboxylic acid]
- MIC (M. bovis BCG): < 125 µg/mL
- MIC (M. tuberculosis H37Rv): 15 µg/mL (≈ 33.8 µM)
- MIC (M. abscessus): > 125 µg/mL
- IC50-L929/MIC Mtb (cytotoxicity / discriminatory index) (L929 cells): 13
- melting point: 248 to 250 °C

Compound: Cc1c(-c2cc(C(=O)O)c3ccccc3n2)nnn1-c1ccccc1 [Compound 5a, 2-(5-Methyl-1-phenyl-1H-1,2,3-triazol-4-yl)benzo [b]pyridine-4-carboxylic acid]
- MIC (M. bovis BCG): < 125 µg/mL
- MIC (M. tuberculosis H37Rv): 125 µg/mL (≈ 378 µM)
- MIC (M. abscessus): > 125 µg/mL
- melting point: 278 to 280 °C

Compound: COc1ccc(-n2nnc(-c3cc(C(=O)O)c4ccccc4n3)c2C)cc1 [Compound 5b, 2-(1-(4-Methoxyphenyl)-5-methyl-1H-1,2,3-triazol-4-yl)benzo[b]pyridine-4-carboxylic acid]
- MIC (M. bovis BCG): < 125 µg/mL
- MIC (M. tuberculosis H37Rv): 62.5 µg/mL (≈ 173 µM)
- MIC (M. abscessus): > 125 µg/mL
- melting point: 222 to 224 °C

Compound: Cc1c(-c2cc(C(=O)O)c3ccccc3n2)nnn1-c1cccc(Cl)c1 [Compound 5c, 2-(1-(3-Chlorophenyl)-5-methyl-1H-1,2,3-triazol-4-yl)benzo [b]pyridine-4-carboxylic acid]
- MIC (M. bovis BCG): < 125 µg/mL
- MIC (M. tuberculosis H37Rv): 62.5 µg/mL (≈ 171 µM)
- MIC (M. abscessus): > 125 µg/mL
- melting point: 276 to 277 °C

Compound: Cc1c(-c2cc(C(=O)O)c3ccccc3n2)nnn1-c1cccc(Br)c1 [Compound 5d, 2-(1-(3-Bromophenyl)-5-methyl-1H-1,2,3-triazol-4-yl)benzo [b]pyridine-4-carboxylic acid]
- MIC (M. bovis BCG): < 125 µg/mL
- MIC (M. tuberculosis H37Rv): 62.5 µg/mL (≈ 153 µM)
- MIC (M. abscessus): > 125 µg/mL
- melting point: 248 to 250 °C

Compound: Cc1c(-c2cc(C(=O)O)c3ccccc3n2)nnn1-c1ccc(F)cc1 [Compound 5e, 2-(1-(4-Fluorophenyl)-5-methyl-1H-1,2,3-triazol-4-yl)benzo [b]pyridine-4-carboxylic acid]
- MIC (M. bovis BCG): < 125 µg/mL
- MIC (M. tuberculosis H37Rv): 125 µg/mL (≈ 359 µM)
- MIC (M. abscessus): > 125 µg/mL
- melting point: 290 to 291 °C

Compound: Cc1c(-c2cc(C(=O)O)c3ccccc3n2)nnn1-c1ccc(Cl)cc1 [Compound 5f, 2-(1-(4-Chlorophenyl)-5-methyl-1H-1,2,3-triazol-4-yl)benzo [b]pyridine-4-carboxylic acid]
- MIC (M. bovis BCG): < 125 µg/mL
- MIC (M. tuberculosis H37Rv): 62.5 µg/mL (≈ 171 µM)
- MIC (M. abscessus): > 125 µg/mL
- melting point: 246 to 248 °C

Compound: Cc1c(-c2cc(C(=O)O)c3ccccc3n2)nnn1-c1ccc([N+](=O)[O-])cc1 [Compound 5h, 2-(5-Methyl-1-(4-nitrophenyl)-1H-1,2,3-triazol-4-yl)benzo [b]pyridine-4-carboxylic acid]
- MIC (M. bovis BCG): < 125 µg/mL
- MIC (M. tuberculosis H37Rv): 125 µg/mL (≈ 333 µM)
- MIC (M. abscessus): > 125 µg/mL
- melting point: 265 to 267 °C

Compound: COc1ccc(-n2nnc(-c3cc(C(=O)O)c4cc(Cl)ccc4n3)c2C)cc1 [Compound 5j, 6-Chloro-2-(1-(4-methoxyphenyl)-5-methyl-1H-1,2,3-triazol-4-yl)benzo [b]pyridine-4-carboxylic acid]
- MIC (M. bovis BCG): < 125 µg/mL
- MIC (M. tuberculosis H37Rv): 15 µg/mL (≈ 38 µM)
- MIC (M. abscessus): > 125 µg/mL
- IC50-L929/MIC Mtb (cytotoxicity / discriminatory index) (L929 cells): 10
- melting point: 287 to 289 °C

Compound: Cc1c(-c2cc(C(=O)O)c3cc(Cl)ccc3n2)nnn1-c1cccc(Cl)c1 [Compound 5k, 6-Chloro-2-(1-(3-chlorophenyl)-5-methyl-1H-1,2,3-triazol-4-yl)benzo [b]pyridine-4-carboxylic acid]
- MIC (M. bovis BCG): < 125 µg/mL
- MIC (M. tuberculosis H37Rv): 15 µg/mL (≈ 37.6 µM)
- MIC (M. abscessus): > 125 µg/mL
- IC50-L929/MIC Mtb (cytotoxicity / discriminatory index) (L929 cells): 13
- melting point: > 300 °C

Compound: Cc1c(-c2cc(C(=O)O)c3cc(Cl)ccc3n2)nnn1-c1ccc(F)cc1 [Compound 5m, 6-Chloro-2-(1-(4-fluorophenyl)-5-methyl-1H-1,2,3-triazol-4-yl)benzo [b]pyridine-4-carboxylic acid]
- MIC (M. bovis BCG): < 125 µg/mL
- MIC (M. tuberculosis H37Rv): 62.5 µg/mL (≈ 163 µM)
- MIC (M. abscessus): > 125 µg/mL
- melting point: 298 to 299 °C

Compound: Cc1c(-c2cc(C(=O)O)c3cc(Cl)ccc3n2)nnn1-c1ccc(Br)cc1 [Compound 5o, 2-(1-(4-Bromophenyl)-5-methyl-1H-1,2,3-triazol-4-yl)-6-chlorobenzo [b]pyridine-4-carboxylic acid]
- MIC (M. bovis BCG): < 125 µg/mL
- MIC (M. tuberculosis H37Rv): 15 µg/mL (≈ 33.8 µM)
- MIC (M. abscessus): > 125 µg/mL
- IC50-L929/MIC Mtb (cytotoxicity / discriminatory index) (L929 cells): 10
- melting point: > 300 °C

Compound: Cc1c(-c2cc(C(=O)O)c3cc(Cl)ccc3n2)nnn1-c1ccc([N+](=O)[O-])cc1 [Compound 5p, 6-Chloro-2-(5-methyl-1-(4-nitrophenyl)-1H-1,2,3-triazol-4-yl)benzo [b]pyridine-4-carboxylic acid]
- MIC (M. bovis BCG): < 125 µg/mL
- MIC (M. tuberculosis H37Rv): 62.5 µg/mL (≈ 153 µM)
- MIC (M. abscessus): > 125 µg/mL
- melting point: 235 to 237 °C

Compound: Cc1c(-c2cc(C(=O)O)c3cc(Br)ccc3n2)nnn1-c1ccccc1 [Compound 5q, 6-Bromo-2-(5-methyl-1-phenyl-1H-1,2,3-triazol-4-yl)benzo [b]pyridine-4-carboxylic acid]
- MIC (M. bovis BCG): < 125 µg/mL
- MIC (M. tuberculosis H37Rv): 15 µg/mL (≈ 36.7 µM)
- MIC (M. abscessus): > 125 µg/mL
- melting point: > 300 °C

Compound: COc1ccc(-n2nnc(-c3cc(C(=O)O)c4cc(Br)ccc4n3)c2C)cc1 [Compound 5r, 6-Bromo-2-(1-(4-methoxyphenyl)-5-methyl-1H-1,2,3-triazol-4-yl)benzo [b]pyridine-4-carboxylic acid]
- MIC (M. bovis BCG): < 125 µg/mL
- MIC (M. tuberculosis H37Rv): 15 µg/mL (≈ 34.1 µM)
- MIC (M. abscessus): > 125 µg/mL
- IC50-L929/MIC Mtb (cytotoxicity / discriminatory index) (L929 cells): 5
- melting point: 294 to 295 °C

Compound: Cc1c(-c2cc(C(=O)O)c3cc(Br)ccc3n2)nnn1-c1cccc(Cl)c1 [Compound 5s, 6-Bromo-2-(1-(3-chlorophenyl)-5-methyl-1H-1,2,3-triazol-4-yl)benzo [b]pyridine-4-carboxylic acid]
- MIC (M. bovis BCG): < 125 µg/mL
- MIC (M. tuberculosis H37Rv): 15 µg/mL (≈ 33.8 µM)
- MIC (M. abscessus): > 125 µg/mL
- IC50-L929/MIC Mtb (cytotoxicity / discriminatory index) (L929 cells): 13
- melting point: > 300 °C

Compound: Cc1c(-c2cc(C(=O)O)c3cc(Br)ccc3n2)nnn1-c1cccc(Br)c1 [Compound 5t, 6-Bromo-2-(1-(3-bromophenyl)-5-methyl-1H-1,2,3-triazol-4-yl)benzo [b]pyridine-4-carboxylic acid]
- MIC (M. bovis BCG): < 125 µg/mL
- MIC (M. tuberculosis H37Rv): 15 µg/mL (≈ 30.7 µM)
- MIC (M. abscessus): > 125 µg/mL
- IC50-L929/MIC Mtb (cytotoxicity / discriminatory index) (L929 cells): 13
- melting point: 299 to 300 °C

Compound: Cc1c(-c2cc(C(=O)O)c3cc(Br)ccc3n2)nnn1-c1ccc(F)cc1 [Compound 5u, 6-Bromo-2-(1-(4-fluorophenyl)-5-methyl-1H-1,2,3-triazol-4-yl)benzo [b]pyridine-4-carboxylic acid]
- MIC (M. bovis BCG): < 125 µg/mL
- MIC (M. tuberculosis H37Rv): 62.5 µg/mL (≈ 146 µM)
- MIC (M. abscessus): > 125 µg/mL
- melting point: > 300 °C

Compound: Cc1c(-c2cc(C(=O)O)c3cc(Br)ccc3n2)nnn1-c1ccc(Cl)cc1 [Compound 5v, 6-Bromo-2-(1-(4-chlorophenyl)-5-methyl-1H-1,2,3-triazol-4-yl)benzo [b]pyridine-4-carboxylic acid]
- MIC (M. bovis BCG): < 125 µg/mL
- MIC (M. tuberculosis H37Rv): 15 µg/mL (≈ 33.8 µM)
- MIC (M. abscessus): > 125 µg/mL
- IC50-L929/MIC Mtb (cytotoxicity / discriminatory index) (L929 cells): 13
- melting point: > 300 °C

Compound: Cc1c(-c2cc(C(=O)O)c3cc(Br)ccc3n2)nnn1-c1ccc([N+](=O)[O-])cc1 [Compound 5x, 6-Bromo-2-(5-methyl-1-(4-nitrophenyl)-1H-1,2,3-triazol-4-yl)benzo [b]pyridine-4-carboxylic acid]
- MIC (M. bovis BCG): < 125 µg/mL
- MIC (M. tuberculosis H37Rv): 125 µg/mL (≈ 275 µM)
- MIC (M. abscessus): > 125 µg/mL
- melting point: 236 to 238 °C
